Assay results published in patent US7323303B2, “Modified β-lactamases and uses thereof” (priority 2003, dated 2008).

Experiments:
[1] = target: T1, E166Cf (fluorescein-labeled E166C mutant of β-lactamase I) (Bacillus cereus, UniProt P00809, E185C); assay: Spectrophotometric substrate hydrolysis, steady-state kinetics; type: biochemical; conditions: E166Cf; 50 mM potassium phosphate buffer pH 7.0, 20° C.
T1 construct: made in house; host or cells: B. subtilis 1A304 (φ105MU331); then labelled chemically
T1 sequence (P00809 28-306 E185C): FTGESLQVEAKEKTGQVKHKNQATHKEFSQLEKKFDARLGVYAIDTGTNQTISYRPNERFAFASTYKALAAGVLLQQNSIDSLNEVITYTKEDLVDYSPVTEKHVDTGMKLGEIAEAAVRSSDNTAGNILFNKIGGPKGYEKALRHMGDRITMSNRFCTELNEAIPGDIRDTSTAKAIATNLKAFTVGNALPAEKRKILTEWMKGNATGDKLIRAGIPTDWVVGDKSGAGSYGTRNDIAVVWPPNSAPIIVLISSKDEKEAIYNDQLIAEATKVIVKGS
Experimental: (§1) The hydrolytic activities of the wild-type β-lactamase I, E166C and E166Cf mutants towards penicillin G, penicillin V and ampicillin (Sigma) were monitored by the spectrophotometric method. The spectrophotometric measurements were performed on a Perkin Elmer Lambda Bio20 UV/Vis spectrometer. Substrate hydrolysis was monitored at a fixed wavelength: 235 nm for ampicillin, 232 nm for penicillin G and penicillin V. The initial rate of substrate hydrolysis occurring within 5 min was determined in duplicate at each of 6 different substrate concentrations in 50 mM potassium phosphate buffer (pH 7.0) at 20° C. The initial rates determined were then treated as described in Reference 5 to calculate the Michaelis constants (Km) and turnover numbers (kcat) using non-linear regression analysis (equation 1):
(§2) [formula] where v is the initial rate of substrate hydrolysis, Vmax the maximum rate of reaction, [S] the initial substrate concentration, Km the Michaelis constant and kcat=Vmax/[Enzyme].
(§3) The measured steady-state kinetic parameters for hydrolysis of penicillin G, penicillin V and ampicillin by the wild-type β-lactamase I, E166C and E166Cf mutants are summarized in Table 1.
At high substrate concentration (1.0×10^−5 and 1.0×10^−4 M), the penicillin substrates rapidly occupy the active sites to form the ES complexes, thus switching on the fluorescence of the fluorescein labels instantaneously. […] This can be verified by the fact that the ‘plateau time’ (8 and 22 min for 1.0×10^−5 and 1.0×10^−4 M penicillin G respectively) is consistent with the ‘substrate hydrolysis time’ determined by spectrophotometric assays (7 and 20 min for 1.0×10^−5 and 1.0×10^−4 M penicillin G respectively). When most of the penicillin substrates have been hydrolyzed to carboxylic acids, the fluorescence signal of the labeled enzyme will decline subsequently.

[2] = target: T2, E166Cf enzyme (Bacillus cereus, UniProt P00809, E185C); assay: Detection of β-lactam antibiotics in milk by E166Cf fluorescence; conditions: untreated milk; E166Cf 1.2×10^−7 M
T2 construct: made in house; host or cells: B. subtilis 1A304 (φ105MU331); then labelled chemically
T2 sequence (P00809 28-306 E185C): T1 sequence (P00809 28-306 E185C)
Experimental: Fluorescence measurements of the E166Cf enzyme in milk in the presence of penicillin G and ampicillin were performed on a FLUOstar microplate reader (BMG Labtechnologies) equipped with two sample injectors. Excitation and emission filters of 485 and 520 nm respectively were used. Milk (pasteurized and homogenized, Nestle Dairy Farm) was purchased at a local supermarket. The labeled enzyme was mixed with the milk sample in a 96-well microtiter plate (Corning Costar). The antibiotics were then added to the mixtures by the injectors.
FIGS. 21 and 22 show the results from the time-resolved fluorescence measurements of the labeled enzyme (1.2×10^−7 M) in untreated milk in the presence of various concentrations of penicillin G and ampicillin respectively.

[3] = target: T3, E166C mutant of β-lactamase I (Bacillus cereus, UniProt P00809, E185C); assay: Spectrophotometric substrate hydrolysis, steady-state kinetics; type: biochemical; conditions: 50 mM potassium phosphate buffer pH 7.0, 20° C.
T3 construct: made in house; host or cells: B. subtilis 1A304 (φ105MU331)
T3 sequence (P00809 28-306 E185C): T1 sequence (P00809 28-306 E185C)
Experimental: as §1, §2, §3

[4] = target: T4, E. coli TEM-1 β-lactamase (Escherichia coli, UniProt P62593); assay: Drug screening: E166Cf fluorescence in presence of bacterial β-lactamase culture; type: biochemical; set-up: key: −: Decline in fluorescence signal (presence of beta-lactam hydrolysis); +: No decline in fluorescence signal (absence of beta-lactam hydrolysis); conditions: E. coli TEM-1 culture, undiluted; antibiotic 1.0×10^−4 M; E166Cf 1.2×10^−7 M
T4 construct: made in house; host or cells: E. coli BL21(DE3); whole overnight culture used undiluted, not purified
T4 sequence (P62593 24-286 limits assumed): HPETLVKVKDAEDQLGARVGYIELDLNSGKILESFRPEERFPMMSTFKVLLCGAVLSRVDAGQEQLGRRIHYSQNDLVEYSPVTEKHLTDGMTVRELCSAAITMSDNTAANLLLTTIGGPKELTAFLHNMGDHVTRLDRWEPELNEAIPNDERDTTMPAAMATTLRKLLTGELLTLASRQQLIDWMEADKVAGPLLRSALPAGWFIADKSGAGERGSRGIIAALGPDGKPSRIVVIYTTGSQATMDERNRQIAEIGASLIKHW
Experimental: (§4) The use of the E166Cf enzyme in screening bacterial β-lactamases against various β-lactam antibiotics was investigated. The principle of our method is that when both E166Cf and bacterial β-lactamase are incubated with ‘β-lactamase-unstable’ antibiotics, the fluorescence of the E166Cf enzyme will be suppressed because of the greater catalytic efficiency of the bacterial enzyme. In contrast, when bacterial β-lactamases are screened against ‘β-lactamase-resistant’ antibiotics, the fluorescence of the E166Cf enzyme will be enhanced because of the poor hydrolytic activity of the bacterial enzyme. Thus, any β-lactam antibiotic that causes the labeled enzyme to increase its fluorescence intensity in the presence of bacterial β-lactamases can be used in clinical treatments.
The TEM-1 β-lactamase was expressed in E. coli. BL21(DE3). Preparation of the TEM-1 β-lactamase was performed as follows. A bacterial strain was streaked on an agar plate containing 100 μg/ml ampicillin, and the plate was incubated at 37° C. for 24 h. A single bacterial colony from the plate was inoculated into 100 ml of sterilized LB broth (28 g/l) which was then incubated at 37° C. with shaking at 280 rpm overnight. After overnight incubation, the bacterial culture was harvested and stored at −20° C.
(§5) Fluorescence measurements of the E166Cf enzyme in the presence of bacterial cultures and β-lactam antibiotics were performed on a FLUOstar microplate reader (BMG Labtechnologies) equipped with two sample injectors. Excitation and emission filters of 485 and 520 nm respectively were used. For B. cereus penPC β-lactamase, B. licheniformis penP β-lactamase and B. cereus β-lactamase II, the labeled enzymes were mixed with the bacterial cultures, and the mixtures were made up to 300 μl with 50 mM phosphate buffer (pH 7.0) in a 96-well microtiter plate (Corning Costar). For the purpose of comparison, B. subtilis cultures, which produced no β-lactamase, were set up as negative controls. For E. coli. TEM-1 β-lactamase, the labeled enzymes were mixed with the bacterial cultures without dilution. E. coli. cultures, which produced no β-lactamase, were set up as negative controls for comparison. The antibiotics were then added to the bacterial samples by the injectors.
(§6) The results from the time-resolved fluorescence measurements of the labeled enzyme (1.2×10^−7 M) in the presence of various bacterial cultures and β-lactam antibiotics (1.0×10^−4 M) are shown in FIGS. 23 to 26.

[5] = target: T5, B. licheniformis penP β-lactamase (Bacillus licheniformis, UniProt P00808); assay: as above; type: biochemical; set-up: key: −: Decline in fluorescence signal (presence of beta-lactam hydrolysis); +: No decline in fluorescence signal (absence of beta-lactam hydrolysis); conditions: antibiotic 1.0×10^−4 M, E166Cf 1.2×10^−7 M
T5 construct: made in house; host or cells: B. subtilis 1A304 (φ105MU331); whole culture used, not purified
T5 sequence (P00808 27-307): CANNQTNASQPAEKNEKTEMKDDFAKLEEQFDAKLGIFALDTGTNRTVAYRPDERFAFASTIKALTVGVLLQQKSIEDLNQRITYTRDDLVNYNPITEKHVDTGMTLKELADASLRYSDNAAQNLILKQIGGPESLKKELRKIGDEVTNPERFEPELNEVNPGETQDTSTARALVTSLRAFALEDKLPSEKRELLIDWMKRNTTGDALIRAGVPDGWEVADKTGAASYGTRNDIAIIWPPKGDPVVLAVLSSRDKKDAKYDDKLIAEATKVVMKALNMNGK
Experimental: as §4
(§7) The β-lactamase II, penPC β-lactamase and penP β-lactamase were expressed in B. subtilis 1A304 (φ105MU331). These enzymes were prepared according to the procedures described previously (Reference 7: Thomwell, S. J. East, A. K., Errington, J. An efficient expression and secretion system based on Bacillus subtilis phage phi 105 and its uses for the production for B. cereus β-lactamase I. (1993) Gene 133, 47-53) with slight modifications. A bacterial strain was streaked on an agar plate containing 5 μg/ml chloramphenicol, and the plate was incubated at 37° C. for 24 h. A single bacterial colony from the agar plate was inoculated into 100 ml of sterilized BHY medium (37 g/l brain heart infusion and 5 g/l yeast extract) which was then incubated at 37° C. with shaking at 300 rpm overnight. About 7 ml of overnight inoculum was added to a baffled conical flask containing 100 ml of sterilized BHY medium. The inoculated medium was incubated at 37° C. with shaking at 300 rpm. When the optical density of the bacterial culture at 600 nm reached 3.5 to 4.0, the bacterial culture was heated in a water bath at 51° C. for 5 min. Afterwards, the bacterial culture was incubated at 37° C. with shaking at 300 rpm for a further 6 h. The bacterial culture was then harvested and stored at −20° C.
as §5, §6

[6] = target: T6, B. cereus penPC β-lactamase (Bacillus cereus, UniProt P00809); assay: as above; type: biochemical; set-up: key: −: Decline in fluorescence signal (presence of beta-lactam hydrolysis); +: No decline in fluorescence signal (absence of beta-lactam hydrolysis); conditions: antibiotic 1.0×10^−4 M, E166Cf 1.2×10^−7 M
T6 construct: made in house; host or cells: B. subtilis 1A304 (φ105MU331); whole culture used, not purified
T6 sequence (P00809 28-306): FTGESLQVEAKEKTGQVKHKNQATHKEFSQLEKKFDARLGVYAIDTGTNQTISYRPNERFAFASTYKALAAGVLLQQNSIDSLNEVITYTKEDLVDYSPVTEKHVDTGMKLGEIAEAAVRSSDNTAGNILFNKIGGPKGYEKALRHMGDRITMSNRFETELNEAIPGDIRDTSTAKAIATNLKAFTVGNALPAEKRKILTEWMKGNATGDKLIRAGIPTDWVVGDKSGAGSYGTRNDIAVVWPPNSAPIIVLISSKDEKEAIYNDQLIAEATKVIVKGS
Experimental: as §4, §7, §5, §6

[7] = target: T7, B. cereus β-lactamase II (Bacillus cereus, UniProt P04190); assay: as above; type: biochemical; set-up: key: −: Decline in fluorescence signal (presence of beta-lactam hydrolysis); +: No decline in fluorescence signal (absence of beta-lactam hydrolysis); conditions: antibiotic 1.0×10^−4 M, E166Cf 1.2×10^−7 M
T7 construct: made in house; host or cells: B. subtilis 1A304 (φ105MU331); whole culture used, not purified
T7 sequence (P04190 31-257): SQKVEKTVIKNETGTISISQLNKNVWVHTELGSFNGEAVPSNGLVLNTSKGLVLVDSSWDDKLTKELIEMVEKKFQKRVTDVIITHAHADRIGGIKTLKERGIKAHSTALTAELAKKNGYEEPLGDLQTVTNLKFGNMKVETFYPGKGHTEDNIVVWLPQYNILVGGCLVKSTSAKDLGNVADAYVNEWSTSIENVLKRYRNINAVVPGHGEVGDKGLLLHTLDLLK
Experimental: as §4, §7, §5, §6

[8] = target: T2, E166Cf enzyme; assay: Time-resolved fluorescence of E166Cf enzyme with β-lactamase inhibitors; type: biochemical; conditions: E166Cf 1.2×10^−7 M, 50 mM phosphate buffer pH 7.0
Experimental: Time-resolved fluorescence measurements of the E166Cf enzyme in the presence of sulbactam and clavulanate were performed on a Perkin Elmer LS50B spectrofluorometer. The excitation and emission wavelengths were set at 494 and 515 nm respectively. Both excitation and emission slit widths were set at 5 nm. All fluorescence measurements were performed at room temperature.
The fluorescence signals of the labeled enzyme (1.2×10^−7 M) obtained with sulbactam (1.0×10^−4 M) and clavulanate (1.0×10^−3 M) in 50 mM phosphate buffer (pH 7.0) are entirely different (FIGS. 18 and 19).

CC1(C)S[C@@H]2[C@H](NC(=O)[C@H](N)c3ccccc3)C(=O)N2[C@H]1C(=O)O [Ampicillin, ampicillin]
Km [1]: 262 ± 31 µM | kcat [1]: 6.2 ± 0.2 s⁻¹ | lowest concentration detected by the labeled enzyme [2]: 10^−6 M | Km [3]: 306 ± 30 µM | kcat [3]: 4.1 ± 0.1 s⁻¹ | fluorescence signal of E166Cf (beta-lactam hydrolysis) [4]: − | fluorescence signal of E166Cf (beta-lactam hydrolysis) [5]: − | fluorescence signal of E166Cf (beta-lactam hydrolysis) [6]: − | fluorescence signal of E166Cf (beta-lactam hydrolysis) [7]: −

O=C(O)[C@H]1/C(=C/CO)O[C@@H]2CC(=O)N21 [clavulanate]
time course of E166Cf fluorescence signal at 515 nm ([8]; 1.0×10^−3 M inhibitor): instantaneous increase in fluorescence signal which declines rapidly within 200 s and then levels off to a plateau

CC1(C)[C@H](C(=O)O)N2C(=O)C[C@H]2S1(=O)=O [sulbactam]
time course of E166Cf fluorescence intensity at 515 nm ([8]; 1.0×10^−4 M inhibitor): increases rapidly at the initial stage and then declines slowly
